# Results as given in publication PMC11604954 (Nature Communications, 2024).
# Tested on: PBMCs from A*02:01 COVID-19 convalescent individuals
# Type: cell-based, human
sequence,measurement,value
YLQPRTFLL,ELISpot response frequency,~ 44%
same,ELISpot: HLA-matched individuals responding / tested,11 out of 25
